In this experiment the target is T1, human mAChR M4 (Homo sapiens, UniProt P08173).
T1 construct: expressed in transfected cells; host or cells: CHO-K1 (ATCC), co-transfected with chimeric G protein Gqi5
T1 sequence (P08173 1-479): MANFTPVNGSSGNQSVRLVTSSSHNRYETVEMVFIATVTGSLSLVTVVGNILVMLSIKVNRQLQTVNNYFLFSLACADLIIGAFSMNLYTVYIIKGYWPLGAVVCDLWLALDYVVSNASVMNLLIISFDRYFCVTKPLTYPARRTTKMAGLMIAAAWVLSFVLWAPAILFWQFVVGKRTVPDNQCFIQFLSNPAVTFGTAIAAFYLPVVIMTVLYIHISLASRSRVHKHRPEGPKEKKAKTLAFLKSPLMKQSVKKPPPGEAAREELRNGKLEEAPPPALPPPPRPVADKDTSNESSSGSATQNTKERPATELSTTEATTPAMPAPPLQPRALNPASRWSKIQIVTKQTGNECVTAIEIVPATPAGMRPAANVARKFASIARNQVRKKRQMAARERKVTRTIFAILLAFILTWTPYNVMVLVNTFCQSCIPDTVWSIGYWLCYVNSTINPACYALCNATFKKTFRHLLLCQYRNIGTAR
Put plainly: mAChR M4 cell-based functional assay (calcium flux, antagonism of EC80 acetylcholine response, M4/Gqi5/CHO-K1 cells). The note with it: for remaining activity at 30 µM: CHO-K1, % ACh maximum at 30 μM, read-out: Human M4 Emin; for IC50: decrease of the response elicited by an EC80 concentration of acetylcholine, CHO-K1 cells, Gqi5. The method, then:
Human or rat M4 cDNA, along with the chimeric G protein Gqi5, were transfected into Chinese hamster ovary (CHO-K1) cells purchased from the American Type Culture Collection using Lipofectamine2000. M4/Gqi5/CHO cells were grown in Ham's F-12 medium containing 10% heat-inactivated fetal bovine serum (FBS), 20 mM HEPES, 500 μg/mL G418 sulfate, and 200 μg/mL Hygromycin B.
For high throughput measurement of agonist-evoked increases in intracellular calcium, CHO-K1 cells stably expressing muscarinic receptors were plated in growth medium lacking G418 and hygromycin at 15,000 cells/20 μL/well in Greiner 384-well black-walled, tissue culture (TC)-treated, clear-bottom plates (VWR). Cells were incubated overnight at 37° C. and 5% CO2. The next day, cells were washed using an ELX 405 (BioTek) with assay buffer; the final volume was then aspirated to 20 μL. Next, 20 μL of a 2.3 μM stock of Fluo-4/acetoxymethyl ester (Invitrogen, Carlsbad, CA), prepared as a 2.3 mM stock in DMSO and mixed in a 1:1 ratio with 10% (w/v) Pluronic F-127 and diluted in assay buffer, was added to the wells and the cell plates were incubated for 50 min at 37° C. and 5% CO2. Dye was removed by washing with the ELX 405 and the final volume was aspirated to 20 μL. Compound master plates were formatted in a 10-point concentration-response curve (CRC) format (1:3 dilutions) in 100% DMSO with a starting concentration of 10 or 1 mM using a BRAVO liquid handler (Agilent). Test compound CRCs were then transferred to daughter plates (240 nL) using the Echo acoustic plate reformatter (Labcyte, Sunnyvale, CA) and then diluted into assay buffer (40 μL) to a 2× stock using a Thermo Fisher Combi (Thermo Fisher Scientific, Waltham, MA).
Calcium flux was measured using the Functional Drug Screening System (FDSS) 6000 or 7000 (Hamamatsu Corporation, Tokyo, Japan) as an increase in the fluorescent static ratio. Compounds were applied to cells (20 μL, 2×) using the automated system of the FDSS at 2 seconds into the protocol and the data were collected at 1 Hz. At 143 s, 10 μL of an EC20 concentration of the muscarinic receptor agonist acetylcholine was added (5×), followed by the addition of 12 μL of an EC80 concentration of acetylcholine at the 268 s time point (5×). Agonist activity was analyzed as a concentration-dependent increase in calcium mobilization upon compound addition. Positive allosteric modulator activity was analyzed as a concentration-dependent increase in the EC20 acetylcholine response. Antagonist activity was analyzed as a concentration-dependent decrease in the EC80 acetylcholine response; for the purposes of the tables herein, an IC50 (inhibitory concentration 50) was calculated as a concentration-dependent decrease of the response elicited by an EC80 concentration of acetylcholine. Concentration-response curves were generated using a four-parameter logistical equation in XLFit curve fitting software (IDBS, Bridgewater, NJ) for Excel (Microsoft, Redmond, WA) or Prism (GraphPad Software, Inc., San Diego, CA) or the Dotmatics software platform (Dotmatics, Bishop's Stortford, UK). […]
Compounds were synthesized as described above. Activity (IC50 and Emin) was determined in the mAChR M4 cell-based functional assay as described above and the data are shown in Table 2.
(Calcium assays in cells follow changes in intracellular calcium, usually with a dye or a luminescent sensor.)

As to `[2H]C([2H])([C@H]1CCCCO1)N1C[C@H]2C[C@H](Nc3ccc(-c4cnccc4C(F)(F)F)nn3)C[C@H]2C1` [Compound 7, (3aR,5s,6aS)-2-(((R)-tetrahydro-2H-pyran-2-yl)methyl-d2)-N-(6-(4-(trifluoromethyl)pyridin-3-yl)pyridazin-3-yl)octahydrocyclopenta[c]pyrrol-5-amine], the remaining activity at 30 µM came out at 2% and the IC50 (as a rule, the point on the concentration scale where inhibition reaches its midpoint) came to 0.13 nM.

On to `[2H]C([2H])([C@@H]1CCCCO1)N1C[C@H]2C[C@H](Nc3ccc(-c4cnccc4C(F)(F)F)nn3)C[C@H]2C1` [Compound 8, (3aR,5s,6aS)-2-(((S)-tetrahydro-2H-pyran-2-yl)methyl-d2)-N-(6-(4-(trifluoromethyl)pyridin-3-yl)pyridazin-3-yl)octahydrocyclopenta[c]pyrrol-5-amine], for which the remaining activity at 30 µM is 3% and the IC50 is 0.086 nM.

In the case of `[2H]C([2H])(C1CCCOC1)N1C[C@H]2C[C@H](Nc3ccc(-c4cnccc4C(F)(F)F)nn3)C[C@H]2C1` (stereo partly drawn) [Compound 9, (3aR,5s,6aS)-2-((tetrahydro-2H-pyran-3-yl)methyl-d2)-N-(6-(4-(trifluoromethyl)pyridin-3-yl)pyridazin-3-yl)octahydrocyclopenta[c]pyrrol-5-amine], the remaining activity at 30 µM was found to be 2% and the half-inhibitory concentration (IC50) stood at 1 nM.

As to `[2H]C([2H])(C1CCCCC1)N1C[C@H]2C[C@H](Nc3ccc(-c4cnccc4C(F)(F)F)nn3)C[C@H]2C1` [Compound 10, (3aR,5s,6aS)-2-(cyclohexylmethyl-d2)-N-(6-(4-(trifluoromethyl)pyridin-3-yl)pyridazin-3-yl)octahydrocyclopenta[c]pyrrol-5-amine], the remaining activity at 30 µM amounted to 3% and the IC50 stood at 0.56 nM.

With `[2H]C([2H])(N1C[C@H]2C[C@H](Nc3ccc(-c4cnccc4C(F)(F)F)nn3)C[C@H]2C1)C1(F)CCOCC1` [Compound 11, (3aR,5s,6aS)-2-((4-fluorotetrahydro-2H-pyran-4-yl)methyl-d2)-N-(6-(4-(trifluoromethyl)pyridin-3-yl)pyridazin-3-yl)octahydrocyclopenta[c]pyrrol-5-amine], the remaining activity at 30 µM was 2% and the IC50 turned out to be 0.86 nM.

As for `[2H]C1([2H])CC(C([2H])([2H])N2C[C@H]3C[C@H](Nc4ccc(-c5cnccc5C(F)(F)F)nn4)C[C@H]3C2)CC([2H])([2H])O1` [Compound 12, (3aR,5s,6aS)-2-((tetrahydro-2H-pyran-4-yl-2,2,6,6-d4)methyl-d2)-N-(6-(4-(trifluoromethyl)pyridin-3-yl)pyridazin-3-yl)octahydrocyclopenta[c]pyrrol-5-amine], the remaining activity at 30 µM amounted to 2% and the 50% inhibitory concentration (IC50) is 0.77 nM.

Consider `[2H]C([2H])(C1CCOCC1)N1C[C@H]2C[C@H](Nc3ccc(-c4cnccc4C(F)F)nn3)C[C@H]2C1` [Compound 13, (3aR,5s,6aS)-N-(6-(4-(difluoromethyl)pyridin-3-yl)pyridazin-3-yl)-2-((tetrahydro-2H-pyran-4-yl)methyl-d2)octahydrocyclopenta[c]pyrrol-5-amine], for which the remaining activity at 30 µM is 4% and the IC50 is 1.2 nM.

On to `[2H]C([2H])(C1CCOCC1)N1C[C@H]2C[C@H](Nc3nnc(-c4cnccc4C(F)(F)F)cc3C3CC3)C[C@H]2C1` [Compound 14, (3aR,5s,6aS)-N-(4-cyclopropyl-6-(4-(trifluoromethyl)pyridin-3-yl)pyridazin-3-yl)-2-((tetrahydro-2H-pyran-4-yl)methyl-d2)octahydrocyclopenta[c]pyrrol-5-amine], for which the remaining activity at 30 µM worked out at 4% and the concentration for half-maximal inhibition (IC50) was determined as 3.1 nM.

As to `[2H]C([2H])(C1CCOCC1)N1C[C@H]2C[C@H](Nc3nnc(-c4cnccc4C(F)(F)F)cc3OC)C[C@H]2C1` [Compound 15, (3aR,5s,6aS)-N-(4-methoxy-6-(4-(trifluoromethyl)pyridin-3-yl)pyridazin-3-yl)-2-((tetrahydro-2H-pyran-4-yl)methyl-d2)octahydrocyclopenta[c]pyrrol-5-amine], the remaining activity at 30 µM stood at 7% and the IC50 was 2.4 nM.

As for `[2H]C([2H])(C1CCOCC1)N1C[C@H]2C[C@H](Nc3nnc(-c4cnccc4C(F)(F)F)cc3C)C[C@H]2C1` [Compound 16, (3aR,5s,6aS)-N-(4-methyl-6-(4-(trifluoromethyl)pyridin-3-yl)pyridazin-3-yl)-2-((tetrahydro-2H-pyran-4-yl)methyl-d2)octahydrocyclopenta[c]pyrrol-5-amine], the remaining activity at 30 µM was 4% and the half-maximal inhibitory concentration (IC50) was 1.5 nM.

Consider `[2H]C([2H])(C1CCOCC1)N1C[C@H]2C[C@H](Nc3ccc(-c4cnc(C(F)(F)F)cc4C(F)(F)F)nn3)C[C@H]2C1` [Compound 17, (3aR,5s,6aS)-N-(6-(4,6-bis(trifluoromethyl)pyridin-3-yl)pyridazin-3-yl)-2-((tetrahydro-2H-pyran-4-yl)methyl-d2)octahydrocyclopenta[c]pyrrol-5-amine], for which the remaining activity at 30 µM was 26% and the IC50 was 2.8 nM.

On to `[2H]C1([2H])CC(C([2H])([2H])N2C[C@H]3C[C@H](Nc4nnc(-c5cnccc5C(F)(F)F)cc4C)C[C@H]3C2)CC([2H])([2H])O1` [Compound 18, (3aR,5s,6aS)-N-(4-methyl-6-(4-(trifluoromethyl)pyridin-3-yl)pyridazin-3-yl)-2-((tetrahydro-2H-pyran-4-yl-2,2,6,6-d4)methyl-d2)octahydrocyclopenta[c]pyrrol-5-amine], for which the remaining activity at 30 µM amounted to 4% and the IC50 was 1.1 nM.

Turning to `[2H]C1([2H])CC(CN2C[C@H]3C[C@H](Nc4nnc(-c5cnccc5C(F)(F)F)cc4C)C[C@H]3C2)CC([2H])([2H])O1` [Compound 19, (3aR,5s,6aS)-N-(4-methyl-6-(4-(trifluoromethyl)pyridin-3-yl)pyridazin-3-yl)-2-((tetrahydro-2H-pyran-4-yl-2,2,6,6-d4)methyl)octahydrocyclopenta[c]pyrrol-5-amine], the remaining activity at 30 µM stood at 3% and the IC50 came to 1.3 nM.

As to `[2H]C([2H])(C1CCOCC1(C)C)N1C[C@H]2C[C@H](Nc3nnc(-c4cnccc4C(F)(F)F)cc3C)C[C@H]2C1` (stereo partly drawn) [Compound 20, (3aR,5s,6aS)-2-((3,3-dimethyltetrahydro-2H-pyran-4-yl)methyl-d2)-N-(4-methyl-6-(4-(trifluoromethyl)pyridin-3-yl)pyridazin-3-yl)octahydrocyclopenta[c]pyrrol-5-amine], the remaining activity at 30 µM was 2% and the half-inhibitory concentration (IC50) is 6.4 nM.

Regarding `[2H]C([2H])(C1CCOCC1(C)C)N1C[C@H]2C[C@H](Nc3nnc(-c4cnccc4C(F)(F)F)cc3OC)C[C@H]2C1` (stereo partly drawn) [Compound 21, (3aR,5s,6aS)-2-((3,3-dimethyltetrahydro-2H-pyran-4-yl)methyl-d2)-N-(4-methoxy-6-(4-(trifluoromethyl)pyridin-3-yl)pyridazin-3-yl)octahydrocyclopenta[c]pyrrol-5-amine], the remaining activity at 30 µM was found to be 2% and the IC50 was determined as 11 nM.

The record behind these values is patent US20240109873A1, “ANTAGONISTS OF THE MUSCARINIC ACETYLCHOLINE RECEPTOR M4” (Vanderbilt University, priority 2020, published 2024).
